Measurements as given in patent US9040527B2, “Pyrimidinediamine kinase inhibitors” (Rigel Pharmaceuticals, Inc., priority 2008, dated 2015).

What was measured:
PLK1 [1] = biological target: T1, PLK1 (Homo sapiens, UniProt P53350); assay: In vitro PLK1 ELISA assay (biochemical); design: purchased Cell Signalling 7728
Procedure: (§1) Inhibition of PLK1 was measured by quantifying phosphorylation of PLK1 substrates using chemiluminescent and fluorogenic probes. The protocols for these assays are provided below.
In Vitro PLK1 ELISA Assay
1. Preparation of Assay Plates.
Costar 96-well black or white solid flat high binding plates (Fisher Scientific, Catalog No. 07-200-591) were coated with Neutravidin (Pierce, Catalog No. 31000) using the following protocol. A 0.01 mg/mL solution of Neutravidin in 1× Phosphate Buffered Saline (“PBS”, Cellgro/Mediatech, Catalog No. 21-040-CV) was added to each well (100 μL/well) and was incubated for 18-24 hours at 4° C. The plates were then washed with 1× Phosphate Buffer Saline—Tween (“PBST”, Calbiochem, Catalog No. 524653) buffer using a plate washer. The plates were treated with bovine serum albumin (“BSA”, Sigma, Catalog No. A7906) to block non-specific binding sites, by adding a 2% BSA solution in 1×PBST buffer to each well (100 μL/well) and incubating the plates for 1 hour at room temperature. The plates were then washed with 1×PBST buffer using a plate washer.
2. PLK1-Catalyzed Phosphorylation Reaction
An aqueous buffer solution A having the following composition was prepared:
20 mM HEPES (Cellgro/Mediatech, Catalog No. 25-060Ci), pH 7.2;
5 mM MgCl2 (Sigma, Catalog No. M2393);
2 mM MnCl2.4H2O (EM Biosciences, Catalog No. MX0185-2);
1 mM Dithiothreitol (“DTT”, Fluka, Catalog No. B4184).
Next, the substrate solution B was prepared by adding 2.6 μL of 10 mM ATP (Sigma, Catalog No. A7699) and 6.4 μL of the 1 mM PLK1 substrate, CHK2-derived peptide Biotin-SSLETVSTQELYSIP (custom synthesized at Anaspec) SEQ ID: No. 1, to 4691 μL of the buffer solution A. The concentration of the ATP in solution B is 5.44 μM (1.36×); the concentration of the PLK1 substrate in solution B is 1.36 μM (1.36×).
Compound solutions C of varying concentrations for each compound were prepared by dissolving each compound in dimethylsulfoxide (DMSO, Sigma, Catalog No. D2650) to varying concentrations, followed by adding 2 μL of each solution to 38 μL of the buffer solution A, thereby forming 10× compound solutions in 5% DMSO.
A PLK1 solution D was prepared by adding 8.4 μL of 100 μg/mL PLK1 (Cell Signalling, Catalog No. 7728) to 1392 μL of the buffer solution A, thereby forming 0.6 μg/mL (6×) PLK1 solution.
The aqueous 1.36× substrate solution B was added to each well (44 μL/well) resulting in binding of the substrate to the plate via biotin/neutravidin interaction. Then 10× compound solutions C for each tested compound at each tested concentration were added to each well (6 μL/well). Next, 6×PLK1 solution D was added to each well (10 μL/well).
The final concentrations of tested compounds in each well were 10 μM, 3.3 μM, 1.1 μM, 0.36 μM, 0.12 μM, 0.04 μM, 0.014 μM, and 0.005 μM.
The obtained reaction mixtures were incubated in the wells for 45 minutes at room temperature, allowing PLK1-catalyzed phosphorylation of the substrate to proceed. The plates were then washed with 1×PBST solution using a plate washer, such that the bound phosphorylated or unphosphorylated substrate remains attached to the wells upon washing.
The washed plates were developed by treating the plates with a primary antibody that is specific for the phosphorylated substrate, followed by treatment with a secondary antibody that is specific for the primary antibody, and that is capable of catalyzing a reaction that results in a chemiluminescent readout. The chemiluminescent readout was used to quantify the substrate phosphorylation, and, consequently, to determine IC50 values for PLK1 inhibition, and was measured using a luminometer (Perkin Elmer/Wallac plate reader). The plate development protocol is described below.
A mixed antibody solution E was prepared by adding 1 μL of the primary antibody, rabbit p-CHK2(T68) (Rockland, Catalog No. 401280), and 1 μL of the secondary antibody, HRP-goat anti-rabbit IgG (Jackson Immunoresearch Catalog No. 111-035-003) to 10000 μL of 0.1% BSA in 1×PBST buffer. […]

PLK1 [2] = biological target: T1, PLK1; assay: Cellular PLK1 assay in K562 cells overexpressing CDC25C; type: cell-based; design: endogenous in cells; host or cells: K562 (human chronic myelogenous leukemia) overexpressing CDC25C, nocodazole-arrested; details: nocodazole arrested, cdc25c p-Ser198 readout
Procedure: as §1
1. Culturing of K562 Cells
Human chronic myelogenous leukemia K562 cells (American Tissue Culture Collection) overexpressing CDC25C, were grown in Growth Medium having the following composition: Iscove Dulbecco's Modified Eagle's Medium (“Iscove DMEM”, Mediatech/Cellgro, Cat. #10-013-CV), 10% Fetal Bovine Serum (“FBS”, SAFC Biosciences, Cat. #12106-500M), and 1% penicillin/streptomycin (“pen-strep”, Mediatech/Cellgro, Cat. #30-002-CI). The cells were plated in 96 well round bottom tissue culture plates (Fisher, Costar* Cell Culture plates, Cat. #07-200-95) at 100,000 cells per 50 μL of Growth Medium per well. Nocodazole (Sigma, Cat. # M1404) was added to the growth media to arrest the cells in the G2 or M phase, at 333 nM concentration. The cells were incubated with nocodazole for 18 hours at 37° C. prior to addition of tested compounds.
2. Treatment of Cells with the Tested Compounds
Solutions of tested compounds in DMSO at different concentrations were prepared using serial dilutions. Each compound was tested at 8 concentration points, 10 μM, 3.3 μM, 1.11 μM, 0.37 μM, 0.12 μM, 0.04 μM, 0.014 μM, 0.005 μM, duplicate replicates.
Two controls were performed: “DMSO alone” control in which nocodazole and DMSO were present but no compounds were added, and “nocodazole alone” control, in which only nocodazole was present, but neither DMSO nor compounds were added.
The solutions of compounds were prepared by diluting 10 mM compound 1:1 in DMSO (5 μL 10 mM compound and 5 μL DMSO), followed by 1:3 serial dilutions of compound in DMSO performed by diluting 3 μL of higher concentration compound solution serially into 6 μL DMSO to give 3-fold dilutions. Next, 3 μL of each compound solution at each concentration was transferred to 750 μL of Growth Medium. In “DMSO alone” control 3 μL of DMSO alone was added to 750 μL of Growth Medium.
After the diluted compounds were mixed well in the Growth Medium, 50 μL of each compound solution in DMSO/Growth Medium was transferred to each well of the 96-plate containing cells in 50 μL of Growth Medium/Nocodazole.
The cells and compounds were incubated for 120 minutes at 37° C., in an atmosphere containing 5% CO2.
3. Fixation and Permeabilization of the Cells
After the cells were incubated with compounds, the cells were spun down at 1,000 rpm for 5 minutes at 4° C. and supernatants were removed by flicking the plates. Cells were then washed with 200 μl of ice cold PBS, spun down again and supernatants removed. Cells were then fixed and permeabilized by addition of 100 μL/well of Fixation and Permeabilization Solution (1× buffer provided in BD Biosciences Cytofix/Cytoperm™ Fixation/Permeabilization kit, Cat. #554714) and incubation for 20 minutes at room temperature. The fixative was then removed by centrifugation (5 minutes at 2,000 rpm), and plates were flicked to remove the fixative and washed twice, each time with 200 μL/well BD Perm/Wash buffer (10× concentrate provided in BD Biosciences Cytofix/Cytoperm™ Fixation/Permeabilization kit, Cat. #554714, 1× buffer prepared by dilution in distilled H2O).
Cells were spun down at 1,000 rpm for 5 minutes at 4° C. Supernatants were removed by flicking the plates. A solution of a primary antibody specific for cdc25cp-Ser198 was prepared by diluting Rabbit cdc25c (Ser198) antibody (Cell Signaling, #9529L) 1:50 in a Fluorescence Activated Cell Sorting (“FACS”) Buffer (2% FBS in PBS). The cell pellets were resuspended in 50 μL of the primary antibody solution. 50 μL of FACS buffer was added to unstained controls. Staining was allowed to proceed overnight at room temperature.
The plates were then washed by addition of 200 μL of FACS Buffer to each well, were centrifuged and the supernatant was removed. […]

[3] = ELISA, CHK2-derived peptide substrate, read-out: PLK1 IC50 (μM) biochemical assay
[4] = read-out: IC50 in biochemical in vitro PLK1 ELISA assay (less than 10 μM)
[5] = read-out: IC50 in biochemical ELISA assay (less than 0.01 μM)

T1 sequence (P53350 whole entry): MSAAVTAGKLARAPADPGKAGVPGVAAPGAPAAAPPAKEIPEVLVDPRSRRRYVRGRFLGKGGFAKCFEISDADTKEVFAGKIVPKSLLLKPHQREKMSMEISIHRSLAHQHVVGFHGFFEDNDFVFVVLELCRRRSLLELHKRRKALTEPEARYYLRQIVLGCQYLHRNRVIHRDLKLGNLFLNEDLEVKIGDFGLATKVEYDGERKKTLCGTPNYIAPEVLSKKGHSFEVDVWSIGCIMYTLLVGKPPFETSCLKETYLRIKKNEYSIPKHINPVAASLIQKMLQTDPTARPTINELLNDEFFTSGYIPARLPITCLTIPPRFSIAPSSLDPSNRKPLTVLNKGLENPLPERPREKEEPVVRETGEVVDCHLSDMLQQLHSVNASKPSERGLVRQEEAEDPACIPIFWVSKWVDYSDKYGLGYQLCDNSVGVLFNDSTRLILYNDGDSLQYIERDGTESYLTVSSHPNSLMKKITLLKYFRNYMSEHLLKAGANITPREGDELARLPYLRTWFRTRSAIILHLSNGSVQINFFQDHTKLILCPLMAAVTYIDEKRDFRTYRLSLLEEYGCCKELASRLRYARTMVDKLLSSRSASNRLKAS

Row | Structure (SMILES) | IC50 (PLK1 [1]; [3]) [µM] | IC50 (PLK1 [1]; [4]) [µM] | IC50 (PLK1 [2]) [µM] | IC50 (PLK1 [1]; [5]) [µM]
1 | CN1CCN(c2cccc(Nc3nccc(Nc4ccc5c(n4)NCCO5)n3)c2)CC1 [compound 21, N4-(3,4-dihydro-2H-pyrido[3,2-b][1,4]oxazin-6-yl)-N2-(3-(4-methylpiperazin-1-yl)phenyl)pyrimidine-2,4-diamine] | < 0.5 | < 10 | ≥ 10 | 
2 | Cc1ccc(Nc2ncc(F)c(Nc3ccc4c(n3)NCCO4)n2)cc1N1CCN(C)CC1 [compound 22, N4-(3,4-dihydro-2H-pyrido[3,2-b][1,4]oxazin-6-yl)-5-fluoro-N2-(4-methyl-3-(4-methylpiperazin-1-yl)phenyl)pyrimidine-2,4-diamine] | ≥ 10 |  | ≥ 10 | 
3 | CN1CCN(c2cc(Nc3ncc(F)c(Nc4ccc5c(n4)NCCO5)n3)cc(C(F)(F)F)c2)CC1 [compound 24, N4-(3,4-dihydro-2H-pyrido[3,2-b][1,4]oxazin-6-yl)-5-fluoro-N2-(3-(4-methylpiperazin-1-yl)-5-(trifluoro-methyl)phenyl)pyrimidine-2,4-diamine] | < 0.5 | < 10 | ≥ 10 | 
4 | CC(C)Oc1cc(Nc2ncc(F)c(Nc3ccc4c(n3)NCCO4)n2)cc(N2CCN(C)CC2)c1 [compound 26, N4-(3,4-dihydro-2H-pyrido[3,2-b][1,4]oxazin-6-yl)-5-fluoro-N2-(3-isopropoxy-5-(4-methylpiperazin-1-yl)phenyl)pyrimidine-2,4-diamine] | < 0.5 | < 10 | < 0.5 | < 0.01
5 | CCCN1CCOc2ccc(Nc3nc(Nc4ccc(N5CC6CC5CN6S(C)(=O)=O)c(C)c4)ncc3F)nc21 (stereo not drawn) [compound 28, 5-fluoro-N2-(3-methyl-4-(5-(methylsulfonyl)-2,5-diaza-bicyclo[2.2.1]heptan-2-yl)phenyl)-N4-(4-propyl-3,4-dihydro-2H-pyrido[3,2-b][1,4]oxazin-6-yl)pyrimidine-2,4-diamine] | 0.5 to 5 | < 10 | 0.5 to 5 | 
6 | CCCN1C(=O)COc2ccc(Nc3nc(Nc4ccc(N5CC6CC5CN6S(C)(=O)=O)c(C)c4)ncc3F)nc21 (stereo not drawn) [compound 31, 6-(5-fluoro-2-(3-methyl-4-(5-(methylsulfonyl)-2,5-diazabicyclo[2.2.1]heptan-2-yl)phenylamino)pyrimidin-4-ylamino)-4-propyl-2H-pyrido[3,2-b][1,4]oxazin-3(4H)-one] | ≥ 10 |  | 0.5 to 5 | 

More lines, now with the values ahead:

Row | IC50 (PLK1 [1]; [3]) [µM] | IC50 (PLK1 [1]; [4]) [µM] | IC50 (PLK1 [2]) [µM] | IC50 (PLK1 [1]; [5]) [µM] | Structure (SMILES)
7 | < 0.5 | < 10 | 0.5 to 5 |  | CC(C)Oc1ccc(N2CCN(C)CC2)cc1Nc1ncc(F)c(Nc2ccc3c(n2)NCCO3)n1 [compound 23, N4-(3,4-dihydro-2H-pyrido[3,2-b][1,4]oxazin-6-yl)-5-fluoro-N2-(2-isopropoxy-5-(4-methylpiperazin-1-yl)phenyl)pyrimidine-2,4-diamine]
8 | < 0.5 | < 10 | < 0.5 | < 0.01 | CC(C)Oc1cc(Nc2ncc(F)c(Nc3ccc4c(n3)NC(=O)CO4)n2)cc(N2CCN(C)CC2)c1 [compound 25, 6-(5-fluoro-2-(3-isopropoxy-5-(4-methylpiperazin-1-yl)phenylamino)pyrimidin-4-ylamino)-2H-pyrido[3,2-b][1,4]oxazin-3(4H)-one]
9 | < 0.5 | < 10 | 0.5 to 5 |  | CC(C)c1ccc(N2CCN(C)CC2)cc1Nc1ncc(F)c(Nc2ccc3c(n2)NCCO3)n1 [compound 27, N4-(3,4-dihydro-2H-pyrido[3,2-b][1,4]oxazin-6-yl)-5-fluoro-N2-(2-isopropyl-5-(4-methylpiperazin-1-yl)phenyl)pyrimidine-2,4-diamine]
10 | < 0.5 | < 10 | ≥ 10 |  | CN1CCN(c2cc(Nc3ncc(F)c(Nc4ccc5c(n4)NC(=O)CO5)n3)cc(C(F)(F)F)c2)CC1 [compound 29, 6-(5-fluoro-2-(3-(4-methylpiperazin-1-yl)-5-(trifluoromethyl)phenyl-amino)pyrimidin-4-ylamino)-2H-pyrido[3,2-b][1,4]oxazin-3(4H)-one]
11 | < 0.5 | < 10 | < 0.5 |  | CC(C)Oc1ccc(N2CCN(C)CC2)cc1Nc1ncc(F)c(Nc2ccc3c(n2)NC(=O)CO3)n1 [compound 30, 6-(5-fluoro-2-(2-isopropoxy-5-(4-methylpiperazin-1-yl)phenylamino)pyrimidin-4-ylamino)-2H-pyrido[3,2-b][1,4]oxazin-3(4H)-one]
